# According to patent publication US10696615B2, “Prenylated hydroxystilbenes” (The University of Sydney, priority 2011, dated 2020):
# What was measured:
# Type in all cases: cell-based, human
# [1] = system: M14; test: NCI in vitro cancer screen, Melanoma; conditions: M14; for GI50 / CC50: Homo sapiens; for CC50: read-out: LC50 (the source's name)
# [2] = system: HL-60 (TB); test: NCI in vitro cancer screen, Leukemia; conditions: HL-60 (TB); for GI50 / CC50: Homo sapiens; for CC50: read-out: LC50 (the source's name)
# [3] = system: OVCAR-8; test: NCI in vitro cancer screen, Ovarian Cancer; conditions: OVCAR-8; for GI50 / CC50: Homo sapiens; for CC50: read-out: LC50 (the source's name)
# [4] = system: 786-0; test: NCI in vitro cancer screen, Renal Cancer; conditions: 786-0
# [5] = system: SF-295; test: NCI in vitro cancer screen, CNS Cancer; conditions: SF-295; for GI50 / CC50: Homo sapiens; for CC50: read-out: LC50 (the source's name)
# [6] = system: ADR-RES (NCI/ADR-RES); test: NCI in vitro cancer screen, Ovarian Cancer; conditions: for TGI: ADR-RES; for GI50 / CC50: Homo sapiens, NCI/ADR-RES; for CC50: read-out: LC50 (the source's name)
# [7] = system: HOP-62; test: NCI in vitro cancer screen, Non-Small Cell Lung Cancer; conditions: HOP-62; for GI50 / CC50: Homo sapiens; for CC50: read-out: LC50 (the source's name)
# [8] = system: T-47D; test: NCI in vitro cancer screen, Breast Cancer; conditions: for GI50 / CC50: Homo sapiens, T47D; for CC50: read-out: LC50 (the source's name)
# [9] = system: HCT-116; test: NCI in vitro cancer screen, Colon Cancer; conditions: HCT-116
# [10] = system: SK-MEL-28; test: NCI in vitro cancer screen, Melanoma; conditions: SK-MEL-28
# [11] = system: SK-OV-3; test: NCI in vitro cancer screen, Ovarian Cancer; conditions: SK-OV-3; for GI50 / CC50: Homo sapiens; for CC50: read-out: LC50 (the source's name)
# [12] = system: HT29; test: NCI in vitro cancer screen, Colon Cancer; conditions: HT29; for GI50 / CC50: Homo sapiens, HT-29; for CC50: read-out: LC50 (the source's name)
# [13] = system: HOP-92; test: NCI in vitro cancer screen, Non-Small Cell Lung Cancer; conditions: HOP-92; for GI50 / CC50: Homo sapiens; for CC50: read-out: LC50 (the source's name)
# [14] = system: UACC-62; test: NCI in vitro cancer screen, Melanoma; conditions: UACC-62; for GI50 / CC50: Homo sapiens; for CC50: read-out: LC50 (the source's name)
# [15] = system: DU-145; test: NCI in vitro cancer screen, Prostate Cancer; conditions: DU-145; for GI50 / CC50: Homo sapiens; for CC50: read-out: LC50 (the source's name)
# [16] = system: LOX IMVI; test: NCI in vitro cancer screen, Melanoma; conditions: for GI50 / CC50: Homo sapiens; for CC50: read-out: LC50 (the source's name)
# [17] = system: UACC-257; test: NCI in vitro cancer screen, Melanoma; conditions: UACC-257; for GI50 / CC50: Homo sapiens; for CC50: read-out: LC50 (the source's name)
# [18] = system: RXF-393; test: NCI in vitro cancer screen, Renal Cancer; conditions: RXF-393; for GI50 / CC50: Homo sapiens; for CC50: read-out: LC50 (the source's name)
# [19] = system: SNB-19; test: NCI in vitro cancer screen, CNS Cancer; conditions: SNB-19; for GI50 / CC50: Homo sapiens; for CC50: read-out: LC50 (the source's name)
# [20] = system: K-562; test: NCI in vitro cancer screen, Leukemia; conditions: K-562; for GI50 / CC50: Homo sapiens, K562; for CC50: read-out: LC50 (the source's name)
# [21] = system: COLO 205; test: NCI in vitro cancer screen, Colon Cancer; conditions: COLO 205; for GI50 / CC50: Homo sapiens; for CC50: read-out: LC50 (the source's name)
# [22] = system: NCI-H23; test: NCI in vitro cancer screen, Non-Small Cell Lung Cancer; conditions: NCI-H23
# [23] = system: OVCAR-4; test: NCI in vitro cancer screen, Ovarian Cancer; conditions: OVCAR-4; for GI50 / CC50: Homo sapiens; for CC50: read-out: LC50 (the source's name)
# [24] = system: NCI-H460; test: NCI in vitro cancer screen, Non-Small Cell Lung Cancer; conditions: NCI-H460; for GI50 / CC50: Homo sapiens; for CC50: read-out: LC50 (the source's name)
# [25] = system: UO-31; test: NCI in vitro cancer screen, Renal Cancer; conditions: UO-31; for GI50 / CC50: Homo sapiens; for CC50: read-out: LC50 (the source's name)
# [26] = system: MDA-MB-468; test: NCI in vitro cancer screen, Breast Cancer; conditions: MDA-MB-468; for GI50 / CC50: Homo sapiens; for CC50: read-out: LC50 (the source's name)
# [27] = system: OVCAR-5; test: NCI in vitro cancer screen, Ovarian Cancer; conditions: OVCAR-5; for GI50 / CC50: Homo sapiens; for CC50: read-out: LC50 (the source's name)
# [28] = system: RPMI-8226; test: NCI in vitro cancer screen, Leukemia; conditions: RPMI-8226; for GI50 / CC50: Homo sapiens; for CC50: read-out: LC50 (the source's name)
# [29] = system: SK-MEL-5; test: NCI in vitro cancer screen, Melanoma; conditions: SK-MEL-5; for GI50 / CC50: Homo sapiens; for CC50: read-out: LC50 (the source's name)
# [30] = system: MOLT-4; test: NCI in vitro cancer screen, Leukemia; conditions: MOLT-4; for GI50 / CC50: Homo sapiens; for CC50: read-out: LC50 (the source's name)
structure (smiles),measurement,setting,value
"CC(C)=CCc1c(O)cc(/C=C/c2ccc(O)cc2)c(CC=C(C)C)c1O [USYDS6, (E)-2,4-di(3-methyl-2-buten-1-yl)-3,4′,5-trihydroxystilbene]",GI50,[1],2.82 µM
same,CC50,[1],33.4 µM
same,TGI,[1],8.46 µM
same,TGI,[2],4.83 µM
same,GI50,[2],2.07 µM
same,CC50,[2],15.4 µM
same,GI50,[3],2.95 µM
same,CC50,[3],42.9 µM
same,TGI,[3],9.51 µM
same,TGI,[4],6.96 µM
same,GI50,[4]; Homo sapiens,2.46 µM
same,GI50,[5],6.78 µM
same,CC50,[5],53.2 µM
same,TGI,[5],20.8 µM
same,TGI,[6],15.2 µM
same,GI50,[6],3.46 µM
same,CC50,[6],51.2 µM
same,TGI,[7],17.5 µM
same,GI50,[7],5.11 µM
same,CC50,[7],44 µM
same,TGI,[8],20.3 µM
same,GI50,[8],5.03 µM
same,CC50,[8],57.9 µM
same,TGI,[9],3.78 µM
same,GI50,[9]; Homo sapiens,1.89 µM
same,GI50,[10]; Homo sapiens,11.2 µM
same,TGI,[10],24.0 µM
same,GI50,[11],13.9 µM
same,CC50,[11],53.2 µM
same,TGI,[11],27.1 µM
same,TGI,[12],17.6 µM
same,GI50,[12],5.44 µM
same,CC50,[12],48.3 µM
same,TGI,[13],4.67 µM
same,GI50,[13],1.86 µM
same,CC50,[13],14.5 µM
same,GI50,[14],10.3 µM
same,CC50,[14],53.8 µM
same,TGI,[14],23.5 µM
same,TGI,[15],12.9 µM
same,GI50,[15],3.47 µM
same,CC50,[15],40.1 µM
same,TGI,[16],3.42 µM
same,GI50,[16],1.76 µM
same,CC50,[16],6.68 µM
same,GI50,[17],3.49 µM
same,CC50,[17],39.8 µM
same,TGI,[17],14.4 µM
same,GI50,[18],2.15 µM
same,CC50,[18],18.7 µM
same,TGI,[18],5.39 µM
same,GI50,[19],6.38 µM
same,CC50,[19],52.7 µM
same,TGI,[19],20.6 µM
same,GI50,[20],1.46 µM
same,CC50,[20],22.6 µM
same,TGI,[20],4.13 µM
same,TGI,[21],30.2 µM
same,GI50,[21],16 µM
same,CC50,[21],57.2 µM
same,GI50,[22]; Homo sapiens,3.38 µM
same,TGI,[22],15.7 µM
same,GI50,[23],4.4 µM
same,CC50,[23],43.5 µM
same,TGI,[23],16.1 µM
same,GI50,[24],1.89 µM
same,CC50,[24],8.06 µM
same,TGI,[24],3.90 µM
same,GI50,[25],2.51 µM
same,CC50,[25],33.5 µM
same,TGI,[25],7.50 µM
same,GI50,[26],2.3 µM
same,CC50,[26],26 µM
same,TGI,[26],6.39 µM
same,GI50,[27],5.86 µM
same,CC50,[27],53.3 µM
same,TGI,[27],20.0 µM
same,GI50,[28],2.34 µM
same,CC50,[28],62 µM
same,TGI,[28],5.61 µM
same,GI50,[29],2.29 µM
same,CC50,[29],22.1 µM
same,TGI,[29],6.17 µM
same,GI50,[30],1.59 µM
same,CC50,[30],16.8 µM
same,TGI,[30],4.27 µM
"CC(C)=CCc1c(O)cc(/C=C/c2ccc(O)c(O)c2)c(CC=C(C)C)c1O [USYDS7, (E)-2,4-di(3-methyl-2-buten-1-yl)-3,3′,4′,5-tetrahydroxystilbene]",GI50,[1],1.79 µM
same,CC50,[1],7.73 µM
same,TGI,[1],3.71 µM
same,TGI,[2],5.06 µM
same,GI50,[2],2.39 µM
same,CC50,[2],13.8 µM
same,GI50,[3],1.68 µM
same,CC50,[3],7.95 µM
same,TGI,[3],3.65 µM
same,TGI,[4],4.47 µM
same,GI50,[4]; Homo sapiens,1.99 µM
same,LC50 (50% net cell kill),[4]; Homo sapiens,10.2 µM
same,GI50,[5],3.37 µM
same,CC50,[5],44.6 µM
same,TGI,[5],11.4 µM
same,TGI,[6],7.90 µM
same,GI50,[6],2.23 µM
same,CC50,[6],42.4 µM
same,TGI,[7],15.0 µM
same,GI50,[7],3.67 µM
same,CC50,[7],51.6 µM
same,TGI,[8],6.09 µM
same,GI50,[8],1.88 µM
same,CC50,[8],43.5 µM
same,TGI,[9],3.02 µM
same,GI50,[9]; Homo sapiens,1.57 µM
same,LC50 (concentration killing 50% of cells),[9]; Homo sapiens,5.82 µM
same,GI50,[10]; Homo sapiens,3.65 µM
same,LC50,[10]; Homo sapiens,36.7 µM
same,TGI,[10],11.8 µM
same,GI50,[11],5.98 µM
same,CC50,[11],46.5 µM
same,TGI,[11],19.4 µM
same,TGI,[12],10.8 µM
same,GI50,[12],3.64 µM
same,CC50,[12],45.8 µM
same,TGI,[13],4.21 µM
same,GI50,[13],1.52 µM
same,CC50,[13],14.2 µM
same,GI50,[14],2.8 µM
same,CC50,[14],31.5 µM
same,TGI,[14],7.84 µM
same,TGI,[15],7.62 µM
same,GI50,[15],2.65 µM
same,CC50,[15],28.3 µM
same,TGI,[16],3.41 µM
same,GI50,[16],1.71 µM
same,CC50,[16],6.81 µM
same,GI50,[17],2.18 µM
same,CC50,[17],23 µM
same,TGI,[17],5.93 µM
same,GI50,[18],1.53 µM
same,CC50,[18],6.8 µM
same,TGI,[18],3.23 µM
same,GI50,[19],2.8 µM
same,CC50,[19],39.9 µM
same,TGI,[19],8.64 µM
same,GI50,[20],2.14 µM
same,CC50,[20],17.4 µM
same,TGI,[20],4.78 µM
same,TGI,[21],4.34 µM
same,GI50,[21],1.79 µM
same,CC50,[21],12.2 µM
same,GI50,[22]; Homo sapiens,1.81 µM
same,LC50,[22]; Homo sapiens,29.5 µM
same,TGI,[22],5.22 µM
same,GI50,[23],2.85 µM
same,CC50,[23],66.8 µM
same,TGI,[23],11.1 µM
same,GI50,[24],1.64 µM
same,CC50,[24],6.33 µM
same,TGI,[24],3.22 µM
same,GI50,[25],1.6 µM
same,CC50,[25],7.46 µM
same,TGI,[25],3.46 µM
same,GI50,[26],2.12 µM
same,CC50,[26],13.9 µM
same,TGI,[26],4.84 µM
same,GI50,[27],3.04 µM
same,CC50,[27],39 µM
same,TGI,[27],11.6 µM
same,GI50,[28],2.31 µM
same,CC50,[28],61.1 µM
same,TGI,[28],6.01 µM
same,GI50,[29],1.8 µM
same,CC50,[29],7.54 µM
same,TGI,[29],3.68 µM
same,GI50,[30],2.01 µM
same,CC50,[30],26.5 µM
same,TGI,[30],5.19 µM
